Some results are limits rather than exact numbers.

The first experiment has as its target T1, porcine pancreatic lipase (Sus scrofa, UniProt P00591).
T1 construct: gene PNLIP
T1 sequence (P00591 1-450): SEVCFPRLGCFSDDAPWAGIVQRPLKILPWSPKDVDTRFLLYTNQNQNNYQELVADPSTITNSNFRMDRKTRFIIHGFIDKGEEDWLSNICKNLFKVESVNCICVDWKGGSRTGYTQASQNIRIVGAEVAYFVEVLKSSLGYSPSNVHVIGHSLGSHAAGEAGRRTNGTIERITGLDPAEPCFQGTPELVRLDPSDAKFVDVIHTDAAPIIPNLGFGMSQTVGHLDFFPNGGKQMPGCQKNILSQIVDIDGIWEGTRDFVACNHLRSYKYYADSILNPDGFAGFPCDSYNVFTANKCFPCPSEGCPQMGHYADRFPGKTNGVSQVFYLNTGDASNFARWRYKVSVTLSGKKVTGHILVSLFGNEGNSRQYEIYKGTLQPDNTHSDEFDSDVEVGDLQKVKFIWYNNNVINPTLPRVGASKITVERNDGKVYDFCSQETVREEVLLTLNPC
Kind of experiment: p-nitrophenyl butyrate hydrolysis assay; Lineweaver-Burk analysis. The format is biochemical.
The term IC50 denotes the concentration at which inhibition is half-maximal. Turning to `CC1(C)C=Cc2c(cc(O)c3c(=O)c(-c4ccc(O)c(O)c4)coc23)O1` [compound 19, 5,3',4'-trihydroxy-2", 2"-dimethylpyrano (5",6":7,8) isoflavone], the concentration for half-maximal inhibition (IC50) stood at 16.8 µM.

In another experiment the target is T1, porcine pancreatic lipase. Kind of experiment: p-nitrophenyl butyrate hydrolysis assay, % inhibition at […]. The format is biochemical.
By inhibition is commonly meant the share of the control response that was lost under treatment. Higher therefore signals a response far below the control. Take `O=c1c(-c2ccc(O)cc2)coc2cc(O)cc(O)c12` [compound 1, genistein]: at 100 µM the inhibition was 60.7%.
Still for that read-out and setting: next, `CC(C)=CCc1c(O)cc2occ(-c3ccc(O)cc3)c(=O)c2c1O` [compound 9, wighteone]: 65.7%; `CC(C)=CCc1c(O)c(CC=C(C)C)c2occ(-c3ccc(O)c(O)c3)c(=O)c2c1O` [compound 12, 5,7,3',4'-tetrahydroxy-6-8-diprenylisoflavone]: 92.8%; `CC1(C)C=Cc2c(cc3occ(-c4ccc(O)c(O)c4)c(=O)c3c2O)O1` [compound 15, 5,3',4'-trihydroxy-6'',6''-dimethylpyrano-[2'',3'';7,6]isoflavone]: greater than 50%.
The same measure, in the same setting: next, `CC(C)=CCc1c2c(c(O)c3c(=O)c(-c4ccc(O)cc4)coc13)C=CC(C)(C)O2` [compound 16, scandenone]: greater than 50%; `CC1(C)C=Cc2c(cc(O)c3c(=O)c(-c4ccc(O)cc4)coc23)O1` [compound 17, derrone]: 68.2%.
